Consider 18 compounds from patent publication US9982017B2, “Synthetic apelin mimetics for the treatment of heart failure” (priority 2012, dated 2018).

The structures appear in SMILES notation. Where a SMILES comes first, the peptide text is derived from it. Bridges are numbered along the chain shown (N, C = ends). [ ]: non-standard residue; d: D form. ξ: configuration not given here. Bip = N[C@@H](Cc1ccc(-c2ccccc2)cc1)C(=O)O; 3Pal = N[C@@H](Cc1cccnc1)C(=O)O; pGlu = O=C1CC[C@@H](C(=O)O)N1; Nle = CCCC[C@H](N)C(=O)O; ξPip = O=C(O)C1CCCCN1 Bounds are passed on as bounds.

The data set in a line: in vitro. Particulars: rat, not told, Surrogate activity-based Plasma stability t½.
`CCCC[C@@H]1NC(=O)[C@@H]2CCCN2C(=O)CNC(=O)[C@H](CCCCN)NC(=O)[C@H](Cc2c[nH]cn2)NC(=O)[C@@H](NC(=O)[C@H](CC(C)C)NC(=O)[C@H](CCCNC(=N)N)NC(=O)[C@@H]2CCCN2C(=O)[C@@H](CCCNC(=N)N)NC(=O)[C@@H]2CCC(=O)N2)CSSC[C@@H](C(=O)N[C@@H](Cc2ccccc2)C(=O)O)NC1=O` [Example 30, pE-r-P-R-L-C-H-K-G-P-Nle-C-F-OH] ([pGlu][dR]PRLCHKGP[Nle]CF-OH; disulfide 6-12) gave a half-life of over 16.7 h.

In turn, `CCCC[C@@H]1NC(=O)[C@@H]2CCCN2C(=O)CNC(=O)[C@H](CCCCN)NC(=O)[C@H](Cc2c[nH]cn2)NC(=O)[C@@H](NC(=O)[C@H](CC(C)C)NC(=O)[C@H](CCCNC(=N)N)NC(=O)[C@@H]2CCCN2C(=O)[C@H](Cc2ccccc2)NC(=O)[C@@H]2CCC(=O)N2)CSSC[C@@H](C(=O)N[C@@H](Cc2ccccc2)C(=O)O)NC1=O` [Example 31, pE-F-P-R-L-C-H-K-G-P-Nle-C-F-OH] ([pGlu]FPRLCHKGP[Nle]CF-OH; disulfide 6-12) returned a half-life of over 16.7 h.

In the case of `CCCC[C@@H]1NC(=O)[C@@H]2CCCN2C(=O)CNC(=O)[C@H](CCCCN)NC(=O)[C@H](Cc2c[nH]cn2)NC(=O)[C@@H](NC(=O)[C@H](CC(C)C)NC(=O)[C@H](CCCNC(=N)N)NC(=O)[C@@H]2CCCN2C(=O)[C@H](CCC(=O)O)NC(=O)[C@@H]2CCC(=O)N2)CSSC[C@@H](C(=O)N[C@@H](Cc2ccccc2)C(=O)O)NC1=O` [Example 32, pE-E-P-R-L-C-H-K-G-P-Nle-C-F-OH] ([pGlu]EPRLCHKGP[Nle]CF-OH; disulfide 6-12), the half-life was over 16.7 h. For `CCCC[C@@H]1NC(=O)[C@@H]2CCCN2C(=O)CNC(=O)[C@H](CCCCN)NC(=O)[C@H](Cc2c[nH]cn2)NC(=O)[C@@H](NC(=O)[C@H](CC(C)C)NC(=O)[C@H](CCCNC(=N)N)NC(=O)[C@H]2CCCN2C(=O)[C@H](CCCNC(=N)N)NC(=O)[C@@H]2CCC(=O)N2)CSSC[C@@H](C(=O)N[C@@H](Cc2ccccc2)C(=O)O)NC1=O` [Example 33, pE-R-p-R-L-C-H-K-G-P-Nle-C-F-OH] ([pGlu]R[dP]RLCHKGP[Nle]CF-OH; disulfide 6-12) the value was over 16.7 h; for `CCCC[C@@H]1NC(=O)[C@@H]2CCCN2C(=O)CNC(=O)[C@H](CCCCN)NC(=O)[C@H](Cc2c[nH]cn2)NC(=O)[C@@H](NC(=O)[C@H](CC(C)C)NC(=O)[C@H](CCCNC(=N)N)NC(=O)[C@H](CCCCN)NC(=O)[C@H](CCCNC(=N)N)NC(=O)[C@@H]2CCC(=O)N2)CSSC[C@@H](C(=O)N[C@@H](Cc2ccccc2)C(=O)O)NC1=O` [Example 34, pE-R-K-R-L-C-H-K-G-P-Nle-C-F-OH] ([pGlu]RKRLCHKGP[Nle]CF-OH; disulfide 6-12), 8.42 h. Compound `CCCC[C@@H]1NC(=O)[C@@H]2CCCN2C(=O)CNC(=O)[C@H](CCCCN)NC(=O)[C@H](Cc2c[nH]cn2)NC(=O)[C@@H](NC(=O)[C@H](CC(C)C)NC(=O)[C@H](CCCNC(=N)N)NC(=O)[C@H](CC(=O)O)NC(=O)[C@H](CCCNC(=N)N)NC(=O)[C@@H]2CCC(=O)N2)CSSC[C@@H](C(=O)N[C@@H](Cc2ccccc2)C(=O)O)NC1=O` [Example 35, pE-R-D-R-L-C-H-K-G-P-Nle-C-F-OH] ([pGlu]RDRLCHKGP[Nle]CF-OH; disulfide 6-12) yielded a half-life of over 16.7 h. On to `CCCC[C@@H]1NC(=O)[C@@H]2CCCN2C(=O)CNC(=O)[C@H](CCCCN)NC(=O)[C@H](Cc2c[nH]cn2)NC(=O)[C@@H](NC(=O)[C@H](CC(C)C)NC(=O)[C@H](Cc2ccccc2)NC(=O)[C@@H]2CCCN2C(=O)[C@H](CCCNC(=N)N)NC(=O)[C@@H]2CCC(=O)N2)CSSC[C@@H](C(=O)N[C@@H](Cc2ccccc2)C(=O)O)NC1=O` [Example 36, pE-R-P-F-L-C-H-K-G-P-Nle-C-F-OH] ([pGlu]RPFLCHKGP[Nle]CF-OH; disulfide 6-12), for which the half-life was over 16.7 h.

For the compound `CCCC[C@@H]1NC(=O)[C@@H]2CCCN2C(=O)CNC(=O)[C@H](CCCCN)NC(=O)[C@H](Cc2c[nH]cn2)NC(=O)[C@@H](NC(=O)[C@H](CCCCN)NC(=O)[C@H](CCCNC(=N)N)NC(=O)[C@@H]2CCCN2C(=O)[C@H](CCCNC(=N)N)NC(=O)[C@@H]2CCC(=O)N2)CSSC[C@@H](C(=O)N[C@@H](Cc2ccccc2)C(=O)O)NC1=O` [Example 37, pE-R-P-R-K-C-H-K-G-P-Nle-C-F-OH] ([pGlu]RPRKCHKGP[Nle]CF-OH; disulfide 6-12), the half-life is 2.74 h. On to `CCCC[C@@H]1NC(=O)[C@@H]2CCCN2C(=O)CNC(=O)[C@H](CCC(=O)O)NC(=O)[C@H](Cc2c[nH]cn2)NC(=O)[C@@H](NC(=O)[C@H](CC(C)C)NC(=O)[C@H](CCCNC(=N)N)NC(=O)[C@@H]2CCCN2C(=O)[C@H](CCCNC(=N)N)NC(=O)[C@@H]2CCC(=O)N2)CSSC[C@@H](C(=O)N[C@@H](Cc2ccccc2)C(=O)O)NC1=O` [Example 38, pE-R-P-R-L-C-H-E-G-P-Nle-C-F-OH] ([pGlu]RPRLCHEGP[Nle]CF-OH; disulfide 6-12), for which the half-life is over 16.7 h. The same measure for `CCCC[C@@H]1NC(=O)[C@@H]2CCCN2C(=O)[C@H](CC(=O)O)NC(=O)[C@H](CCCCN)NC(=O)[C@H](Cc2c[nH]cn2)NC(=O)[C@@H](NC(=O)[C@H](CC(C)C)NC(=O)[C@H](CCCNC(=N)N)NC(=O)[C@@H]2CCCN2C(=O)[C@H](CCCNC(=N)N)NC(=O)[C@@H]2CCC(=O)N2)CSSC[C@@H](C(=O)N[C@@H](Cc2ccccc2)C(=O)O)NC1=O` [Example 39, pE-R-P-R-L-C-H-K-D-P-Nle-C-F-OH] ([pGlu]RPRLCHKDP[Nle]CF-OH; disulfide 6-12): 10.9 h; for `CCCC[C@@H]1NC(=O)[C@@H]2CCCN2C(=O)CNC(=O)[C@H](CCCCN)NC(=O)[C@H](Cc2c[nH]cn2)NC(=O)[C@@H](NC(=O)[C@H](CC(C)C)NC(=O)[C@H](CCC(=O)O)NC(=O)[C@@H]2CCCN2C(=O)[C@H](CCCNC(=N)N)NC(=O)[C@@H]2CCC(=O)N2)CSSC[C@@H](C(=O)N[C@@H](Cc2ccccc2)C(=O)O)NC1=O` [Example 40, pE-R-P-E-L-C-H-K-G-P-Nle-C-F-OH] ([pGlu]RPELCHKGP[Nle]CF-OH; disulfide 6-12): over 16.7 h. As for `CCCC[C@@H]1NC(=O)[C@@H]2CCCN2C(=O)CNC(=O)[C@H](CCCCN)NC(=O)[C@H](Cc2c[nH]cn2)NC(=O)[C@@H](NC(=O)[C@H](Cc2ccc(-c3ccccc3)cc2)NC(=O)[C@H](CCCNC(=N)N)NC(=O)[C@@H]2CCCN2C(=O)[C@H](CCCNC(=N)N)NC(=O)[C@@H]2CCC(=O)N2)CSSC[C@@H](C(=O)N[C@@H](Cc2ccccc2)C(=O)O)NC1=O` [Example 41, pE-R-P-R-(4-PhF)-C-H-K-G-P-Nle-C-F-OH] ([pGlu]RPR[Bip]CHKGP[Nle]CF-OH; disulfide 6-12), the half-life is 10.5 h. The same measure for `CCCC[C@@H]1NC(=O)[C@@H]2CCCN2C(=O)CNC(=O)[C@H](CCCCN)NC(=O)[C@H](Cc2c[nH]cn2)NC(=O)[C@@H](NC(=O)[C@H](CC(=O)O)NC(=O)[C@H](CCCNC(=N)N)NC(=O)[C@@H]2CCCN2C(=O)[C@H](CCCNC(=N)N)NC(=O)[C@@H]2CCC(=O)N2)CSSC[C@@H](C(=O)N[C@@H](Cc2ccccc2)C(=O)O)NC1=O` [Example 42, pE-R-P-R-D-C-H-K-G-P-Nle-C-F-OH] ([pGlu]RPRDCHKGP[Nle]CF-OH; disulfide 6-12): over 16.7 h; for `CCCC[C@@H]1NC(=O)[C@@H]2CCCN2C(=O)CNC(=O)[C@H](CCCCN)NC(=O)[C@H](CCC(=O)O)NC(=O)[C@@H](NC(=O)[C@H](CC(C)C)NC(=O)[C@H](CCCNC(=N)N)NC(=O)[C@@H]2CCCN2C(=O)[C@H](CCCNC(=N)N)NC(=O)[C@@H]2CCC(=O)N2)CSSC[C@@H](C(=O)N[C@@H](Cc2ccccc2)C(=O)O)NC1=O` [Example 43, pE-R-P-R-L-C-E-K-G-P-Nle-C-F-OH] ([pGlu]RPRLCEKGP[Nle]CF-OH; disulfide 6-12): over 16.7 h.

In the case of `CCCC[C@@H]1NC(=O)[C@@H]2CCCN2C(=O)[C@H](CC(C)C)NC(=O)[C@H](CCCCN)NC(=O)[C@H](Cc2c[nH]cn2)NC(=O)[C@@H](NC(=O)[C@H](CC(C)C)NC(=O)[C@H](CCCNC(=N)N)NC(=O)[C@@H]2CCCN2C(=O)[C@H](CCCNC(=N)N)NC(=O)[C@@H]2CCC(=O)N2)CSSC[C@@H](C(=O)N[C@@H](Cc2ccccc2)C(=O)O)NC1=O` [Example 44, pE-R-P-R-L-C-H-K-L-P-Nle-C-F-OH] ([pGlu]RPRLCHKLP[Nle]CF-OH; disulfide 6-12), the half-life came out at 14.3 h. The same measure for `CCCC[C@@H]1NC(=O)[C@@H]2CCCN2C(=O)[C@H](CCCNC(=N)N)NC(=O)[C@H](CCCCN)NC(=O)[C@H](Cc2c[nH]cn2)NC(=O)[C@@H](NC(=O)[C@H](CC(C)C)NC(=O)[C@H](CCCNC(=N)N)NC(=O)[C@@H]2CCCN2C(=O)[C@H](CCCNC(=N)N)NC(=O)[C@@H]2CCC(=O)N2)CSSC[C@@H](C(=O)N[C@@H](Cc2ccccc2)C(=O)O)NC1=O` [Example 45, pE-R-P-R-L-C-H-K-R-P-Nle-C-F-OH] ([pGlu]RPRLCHKRP[Nle]CF-OH; disulfide 6-12): 2.79 h. The compound `CCCC[C@@H]1NC(=O)C2CCCCN2C(=O)CNC(=O)[C@H](CCCCN)NC(=O)[C@H](Cc2c[nH]cn2)NC(=O)[C@@H](NC(=O)[C@H](CC(C)C)NC(=O)[C@H](CCCNC(=N)N)NC(=O)[C@@H]2CCCN2C(=O)[C@H](CCCNC(=N)N)NC(=O)[C@@H]2CCC(=O)N2)CSSC[C@@H](C(=O)N[C@@H](Cc2ccccc2)C(=O)O)NC1=O` (stereo partly drawn) [Example 46, pE-R-P-R-L-C-H-K-G-(Pipecolic acid)-Nle-C-F-OH] ([pGlu]RPRLCHKG[ξPip][Nle]CF-OH; disulfide 6-12) yielded a half-life of 8.37 h. On to `CC(C)C[C@H](NC(=O)[C@H](CCCNC(=N)N)NC(=O)[C@@H]1CCCN1C(=O)[C@H](CCCNC(=N)N)NC(=O)[C@@H]1CCC(=O)N1)C(=O)N[C@H]1CSSC[C@@H](C(=O)N[C@@H](Cc2ccccc2)C(=O)O)NC(=O)[C@H](Cc2cccnc2)NC(=O)[C@@H]2CCCN2C(=O)CNC(=O)[C@H](CCCCN)NC(=O)[C@H](Cc2c[nH]cn2)NC1=O` [Example 47, pE-R-P-R-L-C-H-K-G-P-(3-PyA)-C-F-OH] ([pGlu]RPRLCHKGP[3Pal]CF-OH; disulfide 6-12), for which the half-life was 6.98 h.
